One block for each compound: values may come before it. The source made the active and inactive calls. No cut-off for these calls is given here.
Assays:
Huh-7.5 [1] = assay: Effect on actin expression in human Huh7.5 cells at 1 uM incubated for 24 hrs by Western blot analysis; format: functional, cell-based
Huh-7.5 [2] = assay: Effect on PAPD5 expression in human Huh7.5 cells at 1 uM incubated for 24 hrs by Western blot analysis; format: functional, cell-based
Huh-7.5 [3] = assay: Effect on PAPD7 expression in human Huh7.5 cells at 1 uM incubated for 24 hrs by Western blot analysis; format: functional, cell-based
HepG2.2.15 [4] = assay: Inhibition of 2.1 to 3.5 kb HBV mRNA accumulation in human HepG2.2.15 cells at 1 to 2 nM treated for 5 days by northern blot analysis; format: functional, cell-based; conditions: Hepatitis B virus, dose 1-2 nM, time 5.0 day
[5] = Inhibition HBsAg secretion in human HepG2.2.15 cells treated for 3 days followed by medium replacement without compound measured after 2 days by CLIA; format: functional, cell-based; conditions: HepG2 2.2.15
Hepatovirus A = assay: Inhibition of replication of Hepatitis A virus expressing 18f-NLuc infected in human Huh7.5 cells treated for 48 hrs by luminescence based analysis; format: functional, organism-based; conditions: for IC50: Huh7.5, 48 h
[6] = Cytotoxicity against human Huh7.5 cells; format: toxicity, cell-based, Huh-7.5
HepG2.2.15 [7] = assay: Inhibition of 2.1 to 3.5 kb HBV mRNA accumulation in human HepG2.2.15 cells at 7.5 to 15 uM treated for 5 days by northern blot analysis; format: functional, cell-based; conditions: Hepatitis B virus, dose 7.5-15 µM, time 5.0 day
[8] = biological target: T1, Protein cereblon/Terminal nucleotidyltransferase 4B (Homo sapiens) (UniProt Q96SW2+Q8NDF8); assay: PROTAC activity at CRBN/PAPD5 in human Huh7.5 cells assessed as protein degradation at 10 uM incubated for 24 hrs in presence of epoxomicin by Western blot analysis; format: cell-based
Huh-7.5 [9] = assay: Effect on actin expression in human Huh7.5 cells at 10 uM incubated for 24 hrs by Western blot analysis; format: functional, cell-based
[10] = Cytotoxicity against human Huh-7 cells assessed as cell viability by Cell Titer Glo assay; format: toxicity, cell-based
Huh-7.5 [11] = assay: Effect on PAPD7 expression in human Huh7.5 cells at 10 uM incubated for 24 hrs by Western blot analysis; format: functional, cell-based
[12] = biological target: T1, Protein cereblon/Terminal nucleotidyltransferase 4B (Homo sapiens); assay: PROTAC activity at CRBN/PAPD5 in human Huh7.5 cells assessed as protein degradation at 10 uM incubated for 24 hrs by Western blot analysis; format: cell-based
[13] = Inhibition HBsAg secretion in human Huh-7 cells harboring pHBV1.3 treated for 2 days followed by replacement of medium containing compound measured after 4 days by CLIA; format: functional, cell-based
Huh-7.5 [14] = assay: Effect on PAPD5 expression in human Huh7.5 cells at 250 nM incubated for 24 hrs by Western blot analysis; format: functional, cell-based
Huh-7.5 [15] = assay: Effect on PAPD7 expression in human Huh7.5 cells at 250 nM incubated for 24 hrs by Western blot analysis; format: functional, cell-based

T1 sequence (Q8NDF8 whole entry, looked up): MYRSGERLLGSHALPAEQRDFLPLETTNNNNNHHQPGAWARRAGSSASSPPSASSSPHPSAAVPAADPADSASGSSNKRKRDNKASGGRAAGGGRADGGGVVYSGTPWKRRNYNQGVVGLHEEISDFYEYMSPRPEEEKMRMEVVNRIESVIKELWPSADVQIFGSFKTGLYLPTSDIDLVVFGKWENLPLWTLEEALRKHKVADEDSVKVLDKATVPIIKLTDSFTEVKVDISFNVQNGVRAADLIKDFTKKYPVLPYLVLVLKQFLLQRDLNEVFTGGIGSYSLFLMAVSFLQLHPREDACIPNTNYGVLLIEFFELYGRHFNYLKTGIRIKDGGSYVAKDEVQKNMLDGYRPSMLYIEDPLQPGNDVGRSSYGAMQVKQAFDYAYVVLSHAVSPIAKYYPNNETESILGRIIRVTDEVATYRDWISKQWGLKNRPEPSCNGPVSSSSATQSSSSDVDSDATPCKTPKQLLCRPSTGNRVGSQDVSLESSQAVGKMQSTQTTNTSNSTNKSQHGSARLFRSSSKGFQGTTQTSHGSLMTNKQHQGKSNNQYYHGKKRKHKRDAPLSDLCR
T1 sequence (Q96SW2 whole entry, looked up): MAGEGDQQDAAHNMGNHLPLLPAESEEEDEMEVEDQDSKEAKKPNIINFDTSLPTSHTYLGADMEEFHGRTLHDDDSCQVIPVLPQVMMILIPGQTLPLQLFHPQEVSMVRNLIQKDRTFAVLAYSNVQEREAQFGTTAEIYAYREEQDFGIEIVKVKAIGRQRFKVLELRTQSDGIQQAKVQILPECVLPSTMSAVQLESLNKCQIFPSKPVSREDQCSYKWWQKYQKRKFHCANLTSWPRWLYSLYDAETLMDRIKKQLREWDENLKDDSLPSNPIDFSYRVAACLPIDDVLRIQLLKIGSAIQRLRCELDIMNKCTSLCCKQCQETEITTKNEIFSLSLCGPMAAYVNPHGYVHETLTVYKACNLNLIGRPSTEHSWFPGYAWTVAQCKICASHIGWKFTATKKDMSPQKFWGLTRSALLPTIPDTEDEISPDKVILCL

IC50 [5]: 0.001 µM
SMILES: COCCCOc1cc2c(cc1OC)-c1cc(=O)c(C(=O)O)cn1[C@H](C(C)C)C2
Activity (Huh-7.5 [1]): inactive | Activity (Huh-7.5 [2]): inactive | Activity (Huh-7.5 [3]): inactive | inhibition (HepG2.2.15 [4]): Active

IC50 (Hepatovirus A): 0.576 µM
SMILES: COc1cc2c(cc1OCCCNC(=O)CCOCCOCCOCCNc1cccc3c1C(=O)N(C1CCC(=O)NC1=O)C3=O)C[C@@H](C(C)C)n1cc(C(=O)O)c(=O)cc1-2 (some centres not stated)
inhibition (Hepatovirus A): Dose-Dependent Effect | CC50 [6]: > 50 µM | inhibition (HepG2.2.15 [7]): Active

SMILES: COc1cc2c(cc1OCCCNC(=O)CCOCCOCCOCCOCCOCCOCCNc1cccc3c1C(=O)N(C1CCC(=O)NC1=O)C3=O)C[C@@H](C(C)C)n1cc(C(=O)O)c(=O)cc1-2 (some centres not stated)
inhibition (Hepatovirus A): Dose-Dependent Effect | IC50 (Hepatovirus A): 0.277 µM | Activity [8]: inactive | Activity (Huh-7.5 [9]): inactive | CC50 [10]: > 50 µM | IC50 [5]: 16.2 µM | CC50 [6]: > 50 µM | inhibition (HepG2.2.15 [7]): Active | Activity (Huh-7.5 [11]): inactive | Activity [12]: Active | IC50 [13]: 10.6 µM

SMILES: CC[C@H](C)[C@H](NC(=O)[C@H]([C@@H](C)CC)N(C)C(C)=O)C(=O)N[C@H](C(=O)N[C@@H](CC(C)C)C(=O)[C@@]1(C)CO1)[C@@H](C)O
Activity (Huh-7.5 [14]): inactive | Activity (Huh-7.5 [15]): inactive
